Measured values as given in patent US9944602B2, “Piperidinone herbicides” (E. I. DU PONT DE NEMOURS AND COMPANY, priority 2014, dated 2018).

What was measured:
Assay type in all cases: in vivo
[1] = system: galium (catchweed bedstraw, Galium aparine); assay: Test C postemergence galium; conditions: Table C, scale 0 to 100
Text: (§1) Seeds of plant species selected from blackgrass (Alopecurus myosuroides), ryegrass, Italian (Italian ryegrass, Lolium multiflorum), wheat (winter wheat, Triticum aestivum), galium (catchweed bedstraw, Galium aparine), corn (Zea mays), crabgrass, large (large crabgrass, Digitaria sanguinalis), foxtail, giant (giant foxtail, Setaria faberii), johnsongrass (Sorghum halepense), lambsquarters (Chenopodium album), morningglory (Ipomoea coccinea), yellow (yellow nutsedge, Cyperus esculentus), pigweed (Amaranthus retroflexus), ragweed (common ragweed, Ambrosia elatior), soybean (Glycine max), barnyardgrass (Echinochloa crus-galli), oilseed rape (Brassica napus), waterhemp (common waterhemp, Amaranthus rudis), and velvetleaf (Abutilon theophrasti) were planted into a blend of loam soil and sand and treated preemergence with test chemicals formulated in a non-phytotoxic solvent mixture which included a surfactant. At the same time, plants selected from these crop and weed species and also chickweed (common chickweed, Stellaria media), kochia (Kochia scoparia), and oat, wild (wild oat, Avena fatua) were planted in pots containing Sunshine Redi-Earth® planting medium comprising spaghnum peat moss, vermiculite, starter nutrients and dolomitic limestone and treated with postemergence applications of test chemicals formulated in the same manner. Plants ranged in height from 2 to 18 cm (1- to 4-leaf stage) for postemergence treatments. Treated plants and controls were maintained in a greenhouse for 13 to 15 days, after which time all species were compared to controls and visually evaluated. Plant response ratings, summarized in Table C, are based on a scale of 0 to 100 where 0 is no effect and 100 is complete control. A dash (-) response means no test result.

[2] = system: ryegrass, Italian (Italian ryegrass, Lolium multiflorum); assay: Test C postemergence ryegrass, Italian; conditions: Table C, scale 0 to 100
Text: as §1

[3] = system: morningglory (Ipomoea coccinea); assay: Test C postemergence morningglory; conditions: Table C, scale 0 to 100
Text: as §1

[4] = system: ragweed (common ragweed, Ambrosia elatior); assay: Test C postemergence ragweed; conditions: Table C, scale 0 to 100
Text: as §1

[5] = system: blackgrass (Alopecurus myosuroides); assay: Test C postemergence blackgrass; conditions: Table C, scale 0 to 100
Text: as §1

[6] = system: oat, wild (wild oat, Avena fatua); assay: Test C postemergence oat, wild; conditions: Table C, scale 0 to 100
Text: as §1

[7] = system: pigweed (Amaranthus retroflexus); assay: Test C postemergence pigweed; conditions: Table C, scale 0 to 100
Text: as §1

[8] = system: barnyardgrass (Echinochloa crus-galli); assay: Test C postemergence barnyardgrass; conditions: Table C, scale 0 to 100
Text: as §1

[9] = system: corn (Zea mays); assay: Test C postemergence corn; conditions: Table C, scale 0 to 100
Text: as §1

[10] = system: waterhemp (common waterhemp, Amaranthus rudis); assay: Test C postemergence waterhemp; conditions: Table C, scale 0 to 100
Text: as §1

[11] = system: morningglory (Ipomoea coccinea); assay: Test C preemergence morningglory; conditions: Table C, scale 0 to 100
Text: as §1

[12] = system: crabgrass, large (large crabgrass, Digitaria sanguinalis); assay: Test C preemergence crabgrass, large; conditions: Table C, scale 0 to 100
Text: as §1

[13] = system: galium (catchweed bedstraw, Galium aparine); assay: Test C preemergence galium; conditions: Table C, scale 0 to 100
Text: as §1

[14] = system: lambsquarters (Chenopodium album); assay: Test C preemergence lambsquarters; conditions: Table C, scale 0 to 100
Text: as §1

[15] = system: yellow (yellow nutsedge, Cyperus esculentus); assay: Test C preemergence yellow nutsedge; conditions: Table C, scale 0 to 100
Text: as §1

[16] = system: ryegrass, Italian (Italian ryegrass, Lolium multiflorum); assay: Test C preemergence ryegrass, Italian; conditions: Table C, scale 0 to 100
Text: as §1

[17] = system: crabgrass, large (large crabgrass, Digitaria sanguinalis); assay: Test A postemergence crabgrass, large; conditions: 0 to 100 scale, 0 is no effect, 100 is complete control
Text: (§2) Seeds of plant species selected from barnyardgrass (Echinochloa crus-galli), kochia (Kochia scoparia), ragweed (common ragweed, Ambrosia elatior), ryegrass, Italian (Italian ryegrass, Lolium multiflorum), crabgrass, large (large crabgrass, Digitaria sanguinalis), foxtail, giant (giant foxtail, Setaria faberii), morningglory (Ipomoea spp.), pigweed (Amaranthus retroflexus), velvetleaf (Abutilon theophrasti), wheat (Triticum aestivum), and corn (Zea mays) were planted into a blend of loam soil and sand and treated preemergence with a directed soil spray using test chemicals formulated in a non-phytotoxic solvent mixture which included a surfactant.
(§3) At the same time, plants selected from these crop and weed species and also blackgrass (Alopecurus myosuroides), and galium (catchweed bedstraw, Galium aparine) were planted in pots containing the same blend of loam soil and sand and treated with postemergence applications of test chemicals formulated in the same manner. Plants ranged in height from 2 to 10 cm and were in the one- to two-leaf stage for the postemergence treatment. Treated plants and untreated controls were maintained in a greenhouse for approximately 10 d, after which time all treated plants were compared to untreated controls and visually evaluated for injury. Plant response ratings, summarized in Table A, are based on a 0 to 100 scale where 0 is no effect and 100 is complete control. A dash (-) response means no test result.

[18] = system: velvetleaf (Abutilon theophrasti); assay: Test A preemergence velvetleaf; conditions: 0 to 100 scale, 0 no effect, 100 complete control
Text: as §2, §3

O=C1NCCC(c2cccc(C(F)(F)F)c2)C1C(=O)Nc1ccccc1Cl (racemic) [Compound 17]
0: Plant response rating ([1]; 31 g ai/ha) | Plant response rating ([1]; 62 g ai/ha) | Plant response rating ([1]; 125 g ai/ha) | Plant response rating ([1]; 250 g ai/ha) | Plant response rating ([2]; 31 g ai/ha) | Plant response rating ([2]; 62 g ai/ha) | Plant response rating ([2]; 125 g ai/ha) | Plant response rating ([2]; 250 g ai/ha) | Plant response rating ([3]; 31 g ai/ha) | Plant response rating ([3]; 62 g ai/ha) | Plant response rating ([3]; 125 g ai/ha) | Plant response rating ([4]; 31 g ai/ha) | Plant response rating ([4]; 62 g ai/ha) | Plant response rating ([4]; 125 g ai/ha) | Plant response rating ([4]; 250 g ai/ha) | Plant response rating ([5]; 31 g ai/ha) | Plant response rating ([5]; 62 g ai/ha) | Plant response rating ([5]; 125 g ai/ha) | Plant response rating ([5]; 250 g ai/ha) | Plant response rating ([6]; 31 g ai/ha) | Plant response rating ([6]; 62 g ai/ha) | Plant response rating ([6]; 125 g ai/ha) | Plant response rating ([6]; 250 g ai/ha) | Plant response rating ([7]; 31 g ai/ha) | Plant response rating ([7]; 62 g ai/ha) | Plant response rating ([7]; 125 g ai/ha) | Plant response rating ([8]; 31 g ai/ha) | Plant response rating ([8]; 62 g ai/ha) | Plant response rating ([9]; 31 g ai/ha) | Plant response rating ([9]; 62 g ai/ha) | Plant response rating ([9]; 125 g ai/ha) | Plant response rating ([9]; 250 g ai/ha) | Plant response rating ([10]; 31 g ai/ha) | Plant response rating ([10]; 62 g ai/ha) | Plant response rating ([10]; 125 g ai/ha) | Plant response rating ([10]; 250 g ai/ha)
5: Plant response rating ([3]; 250 g ai/ha) | Plant response rating ([7]; 250 g ai/ha) | Plant response rating ([8]; 125 g ai/ha)
50: Plant response rating ([8]; 250 g ai/ha)

O=C1NCCC(c2cccc(C(F)(F)F)c2)C1C(=O)Nc1ccc(F)c(F)c1F (racemic) [Compound 28]
0: Plant response rating ([13]; 31 g ai/ha) | Plant response rating ([15]; 31 g ai/ha) | Plant response rating ([15]; 62 g ai/ha) | Plant response rating ([16]; 31 g ai/ha) | Plant response rating ([16]; 62 g ai/ha) | Plant response rating ([16]; 125 g ai/ha)
5: Plant response rating ([11]; 31 g ai/ha) | Plant response rating ([11]; 62 g ai/ha) | Plant response rating ([11]; 125 g ai/ha) | Plant response rating ([14]; 31 g ai/ha) | Plant response rating ([14]; 62 g ai/ha) | Plant response rating ([14]; 125 g ai/ha)
90: Plant response rating ([12]; 125 g ai/ha) | Plant response rating ([12]; 250 g ai/ha)
10: Plant response rating ([15]; 125 g ai/ha)
80: Plant response rating ([12]; 31 g ai/ha)
30: Plant response rating ([11]; 250 g ai/ha)
85: Plant response rating ([12]; 62 g ai/ha)
50: Plant response rating ([15]; 250 g ai/ha)
35: Plant response rating ([16]; 250 g ai/ha)
15: Plant response rating ([14]; 250 g ai/ha)

O=C1NCCC(c2cccc(C(F)(F)F)c2)C1C(=O)Nc1cccc(F)c1F (stereo not shown) [Compound 9, N-(2,3-difluorophenyl)-2-oxo-4-[3-(trifluoromethyl)phenyl]-3-piperidinecarboxamide]
80: Plant response rating, Crabgrass, Large ([17]; 125 g ai/ha) | Plant response rating ([16]; 250 g ai/ha)
85: Plant response rating ([8]; 250 g ai/ha)
20: Plant response rating ([11]; 62 g ai/ha)
90: Plant response rating, Crabgrass, Large ([17]; 500 g ai/ha)
40: Plant response rating ([1]; 250 g ai/ha) | Plant response rating ([3]; 250 g ai/ha)
5: Plant response rating ([11]; 125 g ai/ha) | Plant response rating ([4]; 250 g ai/ha) | Plant response rating ([7]; 125 g ai/ha) | Plant response rating ([7]; 250 g ai/ha) | Plant response rating ([8]; 62 g ai/ha) | Plant response rating ([10]; 62 g ai/ha) | Plant response rating ([10]; 250 g ai/ha)
95: Plant response rating ([12]; 31 g ai/ha) | Plant response rating ([12]; 62 g ai/ha)
45: Plant response rating ([11]; 250 g ai/ha)
60: Plant response rating ([8]; 125 g ai/ha)
30: Plant response rating ([3]; 125 g ai/ha) | Plant response rating ([16]; 31 g ai/ha) | Plant response rating ([16]; 125 g ai/ha)
98: Plant response rating ([12]; 125 g ai/ha) | Plant response rating ([12]; 250 g ai/ha)
75: Plant response rating ([13]; 250 g ai/ha)
0: Plant response rating ([1]; 31 g ai/ha) | Plant response rating ([1]; 62 g ai/ha) | Plant response rating ([1]; 125 g ai/ha) | Plant response rating ([11]; 31 g ai/ha) | Plant response rating ([13]; 31 g ai/ha) | Plant response rating ([13]; 62 g ai/ha) | Plant response rating ([13]; 125 g ai/ha) | Plant response rating ([2]; 31 g ai/ha) | Plant response rating ([2]; 62 g ai/ha) | Plant response rating ([2]; 125 g ai/ha) | Plant response rating ([2]; 250 g ai/ha) | Plant response rating ([14]; 31 g ai/ha) | Plant response rating ([14]; 62 g ai/ha) | Plant response rating ([14]; 125 g ai/ha) | Plant response rating ([14]; 250 g ai/ha) | Plant response rating ([3]; 31 g ai/ha) | Plant response rating ([3]; 62 g ai/ha) | Plant response rating ([4]; 31 g ai/ha) | Plant response rating ([4]; 62 g ai/ha) | Plant response rating ([4]; 125 g ai/ha) | Plant response rating ([5]; 31 g ai/ha) | Plant response rating ([5]; 62 g ai/ha) | Plant response rating ([5]; 125 g ai/ha) | Plant response rating ([5]; 250 g ai/ha) | Plant response rating ([15]; 31 g ai/ha) | Plant response rating ([15]; 62 g ai/ha) | Plant response rating ([15]; 125 g ai/ha) | Plant response rating ([15]; 250 g ai/ha) | Plant response rating ([6]; 31 g ai/ha) | Plant response rating ([6]; 62 g ai/ha) | Plant response rating ([6]; 125 g ai/ha) | Plant response rating ([6]; 250 g ai/ha) | Plant response rating ([7]; 31 g ai/ha) | Plant response rating ([7]; 62 g ai/ha) | Velvetleaf plant response rating ([18]; 125 g ai/ha) | Velvetleaf plant response rating ([18]; 500 g ai/ha) | Plant response rating ([8]; 31 g ai/ha) | Plant response rating ([9]; 31 g ai/ha) | Plant response rating ([9]; 62 g ai/ha) | Plant response rating ([9]; 125 g ai/ha) | Plant response rating ([9]; 250 g ai/ha) | Plant response rating ([10]; 31 g ai/ha) | Plant response rating ([10]; 125 g ai/ha)
50: Plant response rating ([16]; 62 g ai/ha)

O=C1NCCC(c2cccc(C(F)(F)F)c2)C1C(=O)Nc1ccccc1C(F)(F)F (stereo not shown) [Compound 10, 2-oxo-N-[2-(trifluoromethyl)phenyl)-4-[3-(trifluoromethyl)phenyl]-3-piperidinecarboxamide]
0: Velvetleaf plant response rating ([18]; 125 g ai/ha) | Velvetleaf plant response rating ([18]; 500 g ai/ha)
60: Plant response rating, Crabgrass, Large ([17]; 125 g ai/ha)
80: Plant response rating, Crabgrass, Large ([17]; 500 g ai/ha)
